Data on 3 compounds can be found in patent US5270332A, “Cholesteral lowering agents” (Merck & Co., Inc., priority 1992, dated 1993).

Assay [1] addresses T1, squalene synthase (rat liver enzyme) (Rattus norvegicus, UniProt Q02769).
T1 construct: from tissue; host or cells: liver microsomes of male Charles River CD rats fed 0.1% lovastatin for 4 days
T1 sequence (Q02769 1-416): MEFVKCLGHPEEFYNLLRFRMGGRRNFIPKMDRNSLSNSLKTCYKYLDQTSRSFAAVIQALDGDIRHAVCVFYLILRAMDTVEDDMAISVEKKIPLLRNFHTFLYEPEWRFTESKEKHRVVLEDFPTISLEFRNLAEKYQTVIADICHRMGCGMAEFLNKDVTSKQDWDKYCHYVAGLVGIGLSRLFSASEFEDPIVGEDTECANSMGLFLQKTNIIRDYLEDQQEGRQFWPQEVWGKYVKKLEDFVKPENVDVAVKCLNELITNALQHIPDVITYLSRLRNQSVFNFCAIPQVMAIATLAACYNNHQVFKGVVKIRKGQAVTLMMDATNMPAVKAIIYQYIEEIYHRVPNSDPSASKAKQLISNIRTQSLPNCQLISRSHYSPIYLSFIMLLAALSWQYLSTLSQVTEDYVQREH
Put plainly: Squalene synthase assay using rat liver microsomes. The class given is biochemical. To be noted: [3H]farnesyl-pyrophosphate, 30° C., 20 minutes. As for the experimental part:
The squalene synthase assay using rat liver microsomes is described below:
Preparation of Rat Liver Microsomes
Male, Charles River CD rats (120 to 150 g) were fed a diet containing 0.1% lovastatin for 4 days. The livers from these rats were homogenized in 5 volumes (ml/g) of ice cold 50 mM HEPES (4-(2-hydroxyethyl)-1-piperazine ethanesulfonic acid), 5 mM EDTA (ethylenediaminetetraacetic acid) pH 7.5 with a Potter-Elvehjem type tissue grinder. The homogenate was centrifuged twice at 20,000×g for 15 minutes at 4° C., discarding the pellet each time. The supernatant was then centrifuged at 100,000×g for 1 hour at 4° C. The resulting microsomal pellet was resuspended in a volume of the above homogenizing buffer equal to one fifth the volume of the original homogenate. This microsomal preparation has a protein concentration of about 7 mg/ml. The microsomal suspensions were stored in aliquots at -70° C. […]
If a squalene epoxidase inhibitor (ingredient 7, above) is not used, the assay mix is degassed under a vacuum and flushed with N2. […] Five ml of scintillation fluid was added to the heptane solution and radioactivity was determined by liquid scintillation counting.
Percent inhibition is calculated by the formula: [formula]
IC50 values were determined by plotting the log of the concentration of the test compound versus the percentage inhibition. […]
For orientation: Liver microsomes are a subcellular fraction often used to study metabolism.

The target of assay [2] is T2, squalene synthase (human HepG2 enzyme) (Homo sapiens, UniProt P37268).
T2 construct: The resulting pellet from the 100,000×g centrifugation, containing the squalene synthase, was resuspended in 5 ml of enzyme suspension buffer; endogenous in cells; host or cells: HepG2 cells (ATCC HB 8065), 100,000×g microsomal pellet
T2 sequence (P37268 1-417): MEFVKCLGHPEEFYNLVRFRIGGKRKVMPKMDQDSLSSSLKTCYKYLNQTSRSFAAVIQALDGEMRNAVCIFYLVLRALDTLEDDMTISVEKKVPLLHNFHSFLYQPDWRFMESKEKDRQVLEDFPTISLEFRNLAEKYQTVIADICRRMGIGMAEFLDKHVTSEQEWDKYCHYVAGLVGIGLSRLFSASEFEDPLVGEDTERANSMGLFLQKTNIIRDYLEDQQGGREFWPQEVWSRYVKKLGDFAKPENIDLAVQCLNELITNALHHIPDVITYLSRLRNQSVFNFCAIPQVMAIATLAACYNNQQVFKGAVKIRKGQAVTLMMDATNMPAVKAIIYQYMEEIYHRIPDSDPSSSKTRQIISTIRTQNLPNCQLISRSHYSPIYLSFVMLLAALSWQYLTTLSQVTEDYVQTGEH
The assay can be described thus: Squalene synthase assay, human HepG2 cell enzyme. Conditions: 3 μM 3H-farnesyl pyrophosphate, 30°, 20 minutes. It counts as biochemical. How it is done:
The intrinsic squalene synthase inhibitory activity of representative compounds of this invention was also measured by the standard in vitro protocol described below:
PREPARATION OF HUMAN HepG2 cell ENZYME
1. SOURCE: HEPG2 CELL LINE (Liver, hepatoblastoma, Human) ATCC No. HB 8065
2. CELL GROWTH AND MAINTENANCE
Culture Medium: Minimum essential medium (MEM) with non essential amino acids, sodium pyruvate, and 10% fetal bovine serum. The medium was changed twice weekly. […] The growth medium was prepared as listed below:
SUBCULTURE PROCEDURE: The medium was removed and washed with PBS (Phosphate-Buffered Saline 15.6 mM. pH 7.0). Fresh trypsin (0.25%)-EDTA (0.02%) with Hank's Balanced Salt solution was added and the flask was allowed to stand for a minute before the trypsin was removed. The flask was incubated at 37° C. until cells detached. Fresh medium was added and the cells were dispersed and dispensed into new flasks. Subcultivation ration: 1:6. […]
HARVEST: The medium was removed and the cells were washed with PBS. […] Cells 1 were counted (2.5×10^9 yield from 18 flasks (75cm^2)), and resuspended in 10 ml of 50 mM HEPES (N-[2-Hydroxyethyl]piperazine-N'-[2-ethane sulfonic acid]) containing 5 mM MgCl2, 2 mM MnCl2, 10 mM DTT, pH 7.5 (enzyme suspension buffer). […]

For another assay, the system named is Ras farnesylation. To be noted: literature (Hancock et al.; Casey et al.; Schafer et al.); cited from earlier work.

Broadly, the IC50 is the concentration that gives 50% inhibition. Lower therefore signals higher potency. Take `CC(O)C(O)CCCCC=CCCCCC(=O)OC1C(O)C2(CCC(C)C(O)C(C)CC=Cc3ccccc3)OC(C(=O)O)C(O)(C(=O)O)C1(C(=O)O)O2` (stereo not shown) [Compound A]: the IC50 was found to be 5.6 nM in assay [1] and 31 nM in assay [2].

As for `CC[C@H](C)C(=O)O[C@H]1CCC=C2C=C[C@H](C)[C@H](CC[C@@H]3C[C@@H](O)CC(=O)O3)[C@H]21` [compactin], in the assay on Ras farnesylation, the “Inhibition of Ras farnesylation in vivo” value is given as “Inhibition of Ras farnesylation in vivo has been demonstrated”.

For the compound `CC[C@H](C)C(=O)O[C@H]1C[C@@H](C)C=C2C=C[C@H](C)[C@H](CC[C@@H]3C[C@@H](O)CC(=O)O3)[C@H]21` [lovastatin], the “Inhibition of Ras farnesylation in vivo” value in the assay with Ras farnesylation was “Inhibition of Ras farnesylation in vivo has been demonstrated”.
